Values quoted from earlier work as cited in patent US10092609B2, “Process for preparing medicinal mycological preparations” (priority 2015, dated 2018).

Conditions: in vivo

## CC[C@H](C)C(=O)O[C@H]1C[C@@H](C)C=C2C=C[C@H](C)[C@H](CC[C@@H]3C[C@@H](O)CC(=O)O3)[C@H]21 [lovastatin]
  reduction of “bad” LDL-cholesterol in circulation: about 20%
